Our source for the inhibition values is article PMC6934184, “Selective DNA-PKcs inhibition extends the therapeutic index of localized radiotherapy and chemotherapy” (The Journal of Clinical Investigation, 2019).

The assay has as its target T1, PRKCB2 (PKC beta II) (Homo sapiens, UniProt P05771).
T1 construct: purchased Thermo Fisher Scientific (Life Technologies) SelectScreen
Description: SelectScreen Z'LYTE. It counts as biochemical. In a few lines:
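SelectScreen broad panel; activity (Z'LYTE, Adapta) plus binding formats. ATP: Km app for CSF1R Z'LYTE; 10 for CAMK1 Adapta. Readout = % per kinase.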

The structures appear in SMILES notation.

T1 sequence (P05771 1-673 isoform P05771-2): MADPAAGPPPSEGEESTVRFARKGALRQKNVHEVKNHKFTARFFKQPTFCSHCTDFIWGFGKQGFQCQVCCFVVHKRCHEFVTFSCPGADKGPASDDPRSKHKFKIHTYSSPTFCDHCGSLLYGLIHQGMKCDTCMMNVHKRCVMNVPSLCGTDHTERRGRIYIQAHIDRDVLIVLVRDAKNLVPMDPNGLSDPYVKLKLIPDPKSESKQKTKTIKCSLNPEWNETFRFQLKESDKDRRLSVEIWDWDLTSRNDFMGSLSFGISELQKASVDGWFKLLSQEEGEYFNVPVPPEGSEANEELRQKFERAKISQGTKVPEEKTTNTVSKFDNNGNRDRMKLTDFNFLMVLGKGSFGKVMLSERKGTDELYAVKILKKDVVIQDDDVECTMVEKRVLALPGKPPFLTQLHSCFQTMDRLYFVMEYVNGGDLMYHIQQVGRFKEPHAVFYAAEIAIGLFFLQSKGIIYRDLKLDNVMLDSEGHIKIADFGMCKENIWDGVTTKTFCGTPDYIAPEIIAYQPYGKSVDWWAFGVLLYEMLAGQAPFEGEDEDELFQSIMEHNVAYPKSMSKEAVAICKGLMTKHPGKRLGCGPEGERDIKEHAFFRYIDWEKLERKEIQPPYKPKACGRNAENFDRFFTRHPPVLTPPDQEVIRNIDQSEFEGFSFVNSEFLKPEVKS

A word on the inhibition: it is the drop in the measured response relative to a control, in per cent. Turning to `CN(C(=O)CN1CCOCC1)c1ccc2sc3c(-c4cccc5c(=O)cc(N6CC7CCC(C6)O7)oc45)cccc3c2c1` [NU5455], the inhibition at 1 µM was -9.6%.
